These results are taken from patent US20080008760A1, “Functionalized carbon nanotubes, a process for preparing the same and their use in medicinal chemistry” (priority 2003, published 2008).

For assay [1], the system named is Murine 3T3 cells (ATCC CCL-92). Briefly: Fluorescent and confocal microscopy: penetration of FITC functionalized nanotubes into cells. Format: cell-based. As to conditions: 1 μM, 5 μM and 10 μM; FIG. 3: 40 minutes incubation.
Assay [2] relates to Murine 3T3 cells (ATCC CCL-92). Briefly: Cytofluorometry: penetration of FITC functionalized nanotube into cells. Format: cell-based. The conditions noted are these: 1 μM, 5 μM and 10 μM, 1 hour.

With `O=C(O)c1cc(NC(=S)NCCOCCOCCN2CCCC2)ccc1-c1c2ccc(=O)cc-2oc2cc(O)ccc12` [formula (L)], in assay [1], the “penetration into 3T3 cells (fluorescence microscopy, FIG. 3)” value is on record as “have penetrated into 3T3 cells”. For the same molecule, the “penetration into 3T3 cells (cytofluorometry)” value in assay [2] was “readily penetrate into 3T3 cells”.
